Measurements as given in PMC4847174, “C1, a highly potent novel curcumin derivative, binds to tubulin, disrupts microtubule network and induces apoptosis” (Bioscience Reports, 2016).

Legend:
tubulin [1] = molecular target: T1, tubulin; assay: quenching of intrinsic tryptophan fluorescence; gel filtration co-elution; curcumin displacement; polymerization inhibition; type: binding, Capra hircus
T1 construct: tubulin purified from goat brain

tubulin [2] = molecular target: T1, tubulin; assay: quenching of intrinsic tryptophan fluorescence; type: binding, Capra hircus

| Kd (tubulin [1]) [µM] | Kd (tubulin [2]) [µM] | SMILES |
| --- | --- | --- |
| 2.8 ± 1 |  | COc1cc(/C=C/C(=O)C(=CC2CCN(C(=O)OC(C)(C)C)CC2)C(=O)/C=C/c2ccc(O)c(OC)c2)ccc1O [C1, 4-{5-(4-hydroxy-3-methoxy-phenyl)-2-[3-(4-hydroxy-3-methoxy-phenyl)-acryloyl]-3-oxo-penta-1,4-dienyl}-piperidine-1-carboxylic acid tert-butyl ester] |
|  | 5.2 ± 0.8 | COc1cc(/C=C/C(=O)CC(=O)/C=C/c2ccc(O)c(OC)c2)ccc1O [Curcumin] |
